In ChEMBL document CHEMBL5338779, “Discovery, Synthesis, and In Vitro Characterization of 2,3 Derivatives of 4,5,6,7-Tetrahydro-Benzothiophene as Potent Modulators of Retinoic Acid Receptor-Related Orphan Receptor γt” (J Med Chem, 2023):
In brackets after ≈: the same amount, converted by molar mass. Activity calls are given as the source filed them. The calls are words filed in the database; no cut-off is given here.

Columns and labels:
physchem [1] = conditions: fasted state simulated gastric fluid, pH 1.6
physchem [2] = conditions: PBS, pH 7.4
physchem [3] = conditions: citrate buffer, pH 5
[4] = Apparent permeability across apical to basolateral side in MDCKII-MDR1 cells at 10 uM incubated for 90 mins by LC-MS/MS analysis; conditions: dog, mdck-mdr1, 1.5 h
[5] = Apparent permeability across apical to basolateral side in human Caco-2 cells measured after 90 mins by LC-MS/MS analysis; conditions: caco-2, 1.5 h
[6] = Lipophilicity, logD of the compound at pH 7.4; conditions: buffer
[7] = Substrate activity at P-gp in MDCKII-MDR1 cells assessed as efflux ratio of apparent permeability from apical to basolateral side over basolateral to apical side at 10 uM incubated for 90 mins by LC-MS/MS analysis; conditions: dog, mdckii-mdr1, 1.5 h
[8] = Efflux ratio of apparent permeability from apical to basolateral side over basolateral to apical side in MDCKII-MDR1 cells at 10 uM incubated for 90 mins in presence of cyclosporine A by LC-MS/MS analysis; conditions: dog, mdck-mdr1, 1.5 h
[9] = target: T1, Nuclear receptor ROR-gamma (Homo sapiens) (UniProt P51449); conditions: HEK293T, filed as inverse agonist, dose 0.004-1000 nM
T1 sequence (whole entry): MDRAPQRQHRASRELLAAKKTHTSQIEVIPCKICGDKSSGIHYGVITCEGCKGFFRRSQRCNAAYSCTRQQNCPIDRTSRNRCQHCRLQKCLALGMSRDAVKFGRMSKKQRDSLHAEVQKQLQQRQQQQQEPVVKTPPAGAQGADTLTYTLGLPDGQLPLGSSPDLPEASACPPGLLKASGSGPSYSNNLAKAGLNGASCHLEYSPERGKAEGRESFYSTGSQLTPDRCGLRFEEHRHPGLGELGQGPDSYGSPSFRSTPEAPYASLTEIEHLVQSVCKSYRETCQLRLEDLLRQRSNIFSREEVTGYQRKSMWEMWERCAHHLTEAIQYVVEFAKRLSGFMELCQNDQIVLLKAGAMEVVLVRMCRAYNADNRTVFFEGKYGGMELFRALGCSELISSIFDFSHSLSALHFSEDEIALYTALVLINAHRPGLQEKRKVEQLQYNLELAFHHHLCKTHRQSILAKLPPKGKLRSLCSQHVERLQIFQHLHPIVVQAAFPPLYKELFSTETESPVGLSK

[10] = target: T2, Nuclear receptor ROR-gamma (Homo sapiens, UniProt P51449); assay: biochemical; type: cell-based, Insect cell
T2 sequence (P51449 whole entry): T1 sequence (whole entry)

PBMC [11] = assay: Cytotoxicity against human PBMC cells assessed as cell death by flow cytometry method; type: toxicity, cell-based
PBMC [12] = assay: Cytotoxicity against human PBMC cells assessed as increase in cell proliferation by flow cytometry method; type: toxicity, cell-based
[13] = target: T1, Nuclear receptor ROR-gamma (Homo sapiens); assay: Inverse agonist activity at RORgammaT in human PBMC cells assessed as reduction in CD4-positive IL17A-positive cells in Th17 polarization at 10 nM incubated for 48 hrs relative to control; type: cell-based; parameters: scale not given: the % may be the effect or the level left
PBMC [14] = assay: Cytotoxicity against human PBMC cells assessed as reduction in cell viability by flow cytometry method; type: toxicity, cell-based
[15] = target: T1, Nuclear receptor ROR-gamma (Homo sapiens); assay: Inverse agonist activity at RORgammaT in human PBMC cells assessed as reduction in IFNgamma-positive T cells in Th17 polarization at 10 nM incubated for 48 hrs; type: cell-based
[16] = target: T1, Nuclear receptor ROR-gamma (Homo sapiens); assay: Inverse agonist activity at RORgammaT in human PBMC cells assessed as reduction in CD4-positive IL21-positive cells in Th17 polarization at 10 nM incubated for 48 hrs relative to control; type: cell-based; parameters: scale not given: the % may be the effect or the level left
PBMC [17] = assay: Induction of apoptosis in human PBMC cells by flow cytometry method; type: toxicity, cell-based
[18] = target: T1, Nuclear receptor ROR-gamma (Homo sapiens); assay: Inverse agonist activity at RORgammaT in human PBMC cells assessed as reduction in IL22-positive T cells in Th17 polarization at 10 nM incubated for 48 hrs; type: cell-based
[19] = buffer, pH 7.4, 2 h

| SMILES | solubility kinetic at 2 h (physchem [1]) | solubility kinetic at 2 h (physchem [2]) | solubility kinetic at 2 h (physchem [3]) | Papp [4] | Papp [5] | logD [6] | deltaG [9] | IC50 [10] | also measured |
| --- | --- | --- | --- | --- | --- | --- | --- | --- | --- |
| CCC1CCc2c(sc(NC(=O)c3ccnn3C)c2C(=O)Nc2ccccc2C)C1 (stereo not drawn) | 2.8 µM (≈ 1.18 µg/mL) | ≤ 1 µM | 8.13 µM (≈ 3.44 µg/mL) | 3.2 10^-6 cm/s | 1.8 10^-6 cm/s | 4.72 | – | – | – |
| CC1CCCN1C(=O)c1c(NC(=O)c2cccnc2)sc2c1CCCC2 (stereo not drawn) | ≥ 400 µM | 31.3 µM (≈ 11.6 µg/mL) | 392 µM (≈ 145 µg/mL) | 29 10^-6 cm/s | 34.2 10^-6 cm/s | 3.68 | -7.57 kcal/mol | 3.51 nM | Ratio [7]: 0.8; Ratio [8]: 0.8 |
| C[C@@H](C#N)NC(=O)c1c(NC(=O)c2cccnc2)sc2c1CCCC2 | – | 90.9 µM (≈ 32.2 µg/mL) | – | – | – | 2.85 | – | – | – |
| CCC1CCN(C(=O)c2c(NC(=O)c3cccnc3)sc3c2CCCC3)C1 (stereo not drawn) | – | 32.9 µM (≈ 12.6 µg/mL) | – | – | – | 4.05 | – | – | – |
| CSc1ncc(Cl)c(C(=O)Nc2sc3c(c2C(=O)NC2CCS(=O)(=O)C2)CCC(C)C3)n1 (stereo not drawn) | 1.7 µM (≈ 0.876 µg/mL) | 40.2 µM (≈ 20.7 µg/mL) | 9.72 µM (≈ 5.01 µg/mL) | 2.5 10^-6 cm/s | 1.4 10^-6 cm/s | 3.28 | -9.75 kcal/mol | 4.45 nM | Ratio [7]: 8.7; Ratio [8]: 1.1 |
| CC1CCN(CC(=O)Nc2sc3c(c2C(=O)NCc2ccccc2)CCCC3)CC1 | 364 µM (≈ 155 µg/mL) | 12.4 µM (≈ 5.29 µg/mL) | 3.02 µM (≈ 1.29 µg/mL) | 1.3 10^-6 cm/s | 1.2 10^-6 cm/s | 4.57 | – | – | – |
| Cn1cnc(CNC(=O)c2c(NC(=O)c3cccnc3)sc3c2CCCC3)n1 | – | 93.6 µM (≈ 37.1 µg/mL) | – | – | – | 1.62 | -13.3 kcal/mol | 3.43 nM | – |
| Cc1cnc(S(C)(=O)=O)nc1C(=O)Nc1sc2c(c1C(=O)c1ccccc1)CCCC2 | – | ≤ 1 µM | – | – | – | 3.94 | -10.1 kcal/mol | 16.6 nM | – |
| Cc1ccnc(SCC(=O)Nc2sc3c(c2C(=O)NCc2ccccc2)CCCC3)n1 | – | 3.23 µM (≈ 1.46 µg/mL) | – | – | – | 4.92 | -10.2 kcal/mol | 0.69 nM | – |
| O=C(NCc1ccccc1)c1c(NC(=O)C(F)(F)F)sc2c1CCCC2 | – | 28.8 µM (≈ 11 µg/mL) | – | – | – | 4.43 | -10.2 kcal/mol | 2.07 nM | – |
| C[C@@H]1CCN(C(=O)c2c(NC(=O)c3cccnc3)sc3c2CCCC3)[C@H](C)C1 (single isomer, unassigned) | ≥ 200 µM | 27 µM (≈ 10.7 µg/mL) | 23.7 µM (≈ 9.43 µg/mL) | – | – | 4.45 | – | – | – |
| CSc1ncc(Cl)c(C(=O)Nc2sc3c(c2C(=O)NCc2ccccc2)CCCC3)n1 | – | ≤ 1 µM | – | 8 10^-6 cm/s | 4.2 10^-6 cm/s | 5.45 | -11.6 kcal/mol | 0.4 nM | Activity (PBMC [11]): Non-Toxic; Activity (PBMC [12]): Non-Toxic; Activity [13]: 20%; Activity (PBMC [14]): Non-Toxic; Activity [15]: inactive; Activity [16]: 20%; Ratio [7]: 0.3; Ratio [8]: 0.3; Activity (PBMC [17]): Non-Toxic; Activity [18]: inactive |
| CC1CCc2c(sc(NC(=O)c3ccccc3F)c2C(=O)N2CCN(C)CC2)C1 (stereo not drawn) | ≥ 400 µM | 27.7 µM (≈ 11.5 µg/mL) | 349 µM (≈ 145 µg/mL) | 28.9 10^-6 cm/s | 28.2 10^-6 cm/s | 3.59 | – | – | – |
| O=C(Nc1sc2c(c1C(=O)NCC1CCNCC1)CCCC2)c1cccnc1 | – | 84.7 µM (≈ 33.8 µg/mL) | – | – | – | 0.4 | -7.29 kcal/mol | 57.3 nM | – |
| O=C(CN1CCCCC1)Nc1sc2c(c1C(=O)NCc1ccccc1)CCCC2 | – | 19.7 µM (≈ 8.11 µg/mL) | – | – | – | 4.33 | -10.3 kcal/mol | 2.15 nM | – |
| CN1CCN(CC(=O)Nc2sc3c(c2C(=O)NCc2ccccc2)CCCC3)CC1 | ≥ 400 µM | 99.3 µM (≈ 42.4 µg/mL) | 357 µM (≈ 152 µg/mL) | 6.8 10^-6 cm/s | 4.6 10^-6 cm/s | 3.06 | -12.5 kcal/mol | 1.17 nM | Ratio [7]: 1.1; Ratio [8]: 1.2 |
| Cn1ccnc1SCC(=O)Nc1sc2c(c1C(=O)NCc1ccccc1)CCCC2 | 267 µM (≈ 118 µg/mL) | 8.05 µM (≈ 3.55 µg/mL) | 13.6 µM (≈ 5.97 µg/mL) | 27.8 10^-6 cm/s | 18 10^-6 cm/s | 4.44 | – | – | – |
| CN1CCN(C(=O)c2c(NC(=O)c3ccccc3F)sc3c2CCC(C(C)(C)C)C3)CC1 (stereo not drawn) | – | 10.6 µM (≈ 4.83 µg/mL) | – | – | – | 5.06 | – | – | – |
| CCc1ccc(N(CC(C)C)S(=O)(=O)c2ccc(OCC3CCOCC3)c(CO)c2)cc1 [GSK2981278] | – | – | – | – | – | 4.11 | – | 1.71 nM | Kinetic_solubility [19]: Insoluble |
| O=C(Nc1sc2c(c1C(=O)c1ccccc1)CCCC2)c1cnccn1 | – | 18.3 µM (≈ 6.67 µg/mL) | – | – | – | 4.15 | -10.1 kcal/mol | 19.6 nM | – |
| O=C(Nc1sc2c(c1C(=O)N1CCC(CO)C1)CCCC2)c1cccnc1 (stereo not drawn) | 330 µM (≈ 127 µg/mL) | 79.3 µM (≈ 30.6 µg/mL) | 365 µM (≈ 141 µg/mL) | 5.2 10^-6 cm/s | 4.4 10^-6 cm/s | 2.6 | -6.16 kcal/mol | 45.8 nM | Ratio [7]: 4.7; Ratio [8]: 1.4 |
| CC1(C)CCc2c(sc(NC(=O)c3cnccn3)c2C(=O)N2CCOCC2)C1 | – | 34.8 µM (≈ 13.9 µg/mL) | – | – | – | 3 | – | – | – |
